One molecule from article doi:10.1101/2025.03.14.643404, “A Bivalent Molecular Glue Linking Lysine Acetyltransferases to Oncogene-induced Cell Death” (bioRxiv, 2025) can be followed below.

Each structure is given as a SMILES string.

The subject of one assay is SUDHL5. Description: Cell viability, 7 days compound treatment (Cell Titer-Glo), SUDHL5. The format is cell-based. The settings on record: Homo sapiens, SU-DHL-5, 168 h; SUDHL5, 7 days; read-out: IC50 of antiproliferation. The procedure: Fifteen thousand cells were seeded in 100 μl of media per well of a U-bottom 96-well plate and treated with digitally dispensed drugs (Tecan D300e) for the indicated times and doses. After 96 hours, plates were centrifuged for 750 rpm for 3 minutes, and old media was exchanged for 100 μl of fresh media. Drug treatment was then repeated at the indicated doses. 72 hours following media change, cells were transferred to 96 well flat-bottom opaque plates. Viability was measured by adding 25 μL Cell Titer-Glo reagent (Promega G7570) to each well and luminescence was measured (BMG Labtech Pherastar FS). The background luminescence was subtracted, and the signal was normalized to DMSO-treated cells. IC50 measurements on cell lines were calculated using at least three biological replicates by separate cell passages. Fit of dose–response curves to data and statistical analysis was performed using GraphPad PRISM using the four-parameter log(inhibitor) vs response function.

The subject of another assay is p300^BD-BCL6^BTB. Description: TR-FRET ternary assay p300BD-BCL6BTB. The format is binding, human. As to the method:
10 μL reactions containing 10 nM 6x-His- p300^BD or 6x-His-CBP^BD, 200 nM BiotinylatedAvi-BCL6^BTB, 20 nM streptavidin-FITC (SA1001, Thermo), and 1:400 anti-6x-His-terbium (PerkinElmer 61HI2TLF) in buffer containing 20 mM HEPES pH 7.5, 150 mM NaCl, 0.1% BSA, 0.1% NP-40, and 1 mM TCEP were plated in low-volume 384 well plates. Drugs were digitally dispensed (Tecan D300e) into protein-containing wells, and the plate was allowed to incubate in the dark for 1 hour at room temperature. Emission at 490 nm (terbium) and 520 nm (FITC) was measured on a PHERAstar FS plate reader (BMG Labtech) upon excitation with 337 nm. The ratio of signal at 520 nm to 490 nm was calculated and normalized to DMSO-treated protein.
(In general: In TR-FRET formats the signal depends on donor and acceptor labels being close together.)

The test system of another assay is H3K27ac. In words: ChIP-seq for H3K27ac in SUDHL5. Type of assay: cell-based, human. To be noted: SUDHL5, 1 nM, 1 hour. The procedure: 25–30 million cells were treated with TCIP3 or DMSO for indicated timepoints. Cells were washed in PBS containing TCIP3 or DMSO and crosslinked for 11 min in CiA Fix Buffer (50 mM HEPES pH 8.0, 1 mM EDTA, 0.5 mM EGTA, 100 mM NaCl) with addition of formaldehyde to a final concentration of 1%. The crosslinking reaction was quenched by glycine added at 0.125 M final concentration. Crosslinked cells were centrifuged at 1,000 × g for 5 min. […] Library size distributions were confirmed using an Agilent Bioanalyzer and High Sensitivity DNA reagents (Agilent 5067) and concentrations determined by qPCR. […]
The data quality was checked using fastq (https://www.bioinformatics.babraham.ac.uk/projects/fastqc/). The raw reads were trimmed from adapters with cutadapt (parameters: -a […] -A […]) and raw reads were aligned to hg38 human genome assembly using bowtie2 (parameters: --local --maxins 1000). Low quality reads, duplicated reads and reads with multiple alignments were removed using samtools[120] and Picard (https://broadinstitute.github.io/picard/). macs2[121] was used to map position of peaks with FDR cutoff of 0.05. […] All browser tracks and metaprofiles shown were calculated with sequence-depth-normalized, replicate-merged (bigWigMerge[125]) and, for ChIP-seq, input-subtracted data (deeptools bigWigCompare). […]

Consider `CNC(=O)COc1cc2cc(Nc3nc(N4CCC(C(=O)N5CCN(CCC(=O)N6CCC(n7nc(N8CCCc9cc(-c%10cnn(C)c%10)c(C(F)F)cc98)c8c7CCN(C(=O)NC)C8)CC6)CC5)CC4)ncc3Cl)cc(OC)c2n(C)c1=O` [TCIP3], for which, in the assay with SUDHL5, the IC50 turned out to be 1.2 nM. Further, in the assay on p300^BD-BCL6^BTB, the “TR-FRET signal AUC, times higher than NEG1” value is given as 23 times and the “TR-FRET signal AUC, times higher than NEG2” value is recorded as 18 times. Besides, in the assay on H3K27ac, the H3K27ac peaks gained is 533 and the H3K27ac peaks lost was 5,216.
